Our source for the IC50 values is patent US7160874B2, “Phenylalanine derivatives” (Ajinomoto Co., Inc., priority 1999, dated 2007).

One assay addresses T1, integrin α4β1 (Homo sapiens, UniProt P05556+P13612).
T1 construct: cell strain Jurkat (ATCC TIB-152) of human T cells, known to express integrin α4β1; host or cells: Jurkat (human T cell line)
The experiment in a line: VCAM antagonist activity (VCAM-1/α4β1 binding assay). In kind it is cell-based. The conditions noted are these: Jurkat cells binding to VCAM-1; read-out: VCAM antagonistic activity (IC50) α4β1. On the procedure: (Test Example) VCAM Antagonist Activity (VCAM-1/α4β1 Binding Assay):
The capacity of a test substance antagonistic to the binding of cell strain Jurkat (ATCC TIB-152) of human T cells, known to express integrin α4β1, to VCAM-1 was determined.
(§1) 100 μl/well of a solution (500 ng/ml) of recombinant human VCAM-1 (R & D systems) solution diluted with buffer A (0.1 M NaHCO3, pH 9.6) was added to a micro titer plate having 96 wells (Nunc Maxisorp). After the incubation at 4° C. overnight, unbound VCAM-1 was removed by washing once with PBS. After completion of the washing, a buffer (buffer B) obtained by diluting Block Ace® (Dainippon Pharmaceutical Co., Ltd.) with PBS to 1/4 concentration was added in an amount of 150 μl/well. After the incubation at room temperature for 1 hour, buffer B was removed and the plate was washed with PBS once.
Jurkat cells were washed with Dulbecco modified Eagle medium (SIGMA, hereinafter referred to as “DMEM”) twice and then incubated in DMEM containing 10 μg/ml of Calcein-AM (Wako Pure Chemical Industries, Ltd.) at 37° C. in dark place for 30 minutes to label with fluorescence. The cells were again suspended in a binding buffer (20 mM HEPES, DMEM containing 0.1% BSA).
(§2) 50 μl of a test substance of various concentrations obtained by the dilution with the binding buffer was added to the plate. Immediately thereafter, 50 μl (final volume: 100 μl/well) of the fluorescent Jurkat cells (4×10^6 cells/ml) were added thereto, and they were incubated at room temperature for 30 minutes. After the shaking on a plate shaker (IKA MTS-4) at 800 rpm for 30 seconds, the solution was immediately removed to remove the unbound cells. The fluorescence quantity of the bound cells remaining in the wells was determined with a fluorescent plate reader (Wallac 1420 ARVO multi-label counter) (filter excitation wave length: 485 nm, emission wave length: 535 nm). The fluorescent strength thus obtained is proportional to the number of Jurkat cells bound to VCAM-1 and remaining on the plate. The binding rate of each test material in various concentrations was determined while the fluorescent strength of the test material-free well was determined to be 100%. The concentration IC50 for the 50% binding inhibition was calculated.
(§3) The activities were classified into group A wherein IC50 was 0.02 μmol/l or below, group B wherein IC50 was higher than 0.02 μmol/l and not above 0.1 μmol/l, group C wherein IC50 was higher than 0.1 μmol/l and not above 2 μmol/l, and group D wherein IC50 was higher than 2 μmol/l and not above 10 μmol/l.

Another assay deals with T2, integrin α4β7 (Homo sapiens, UniProt P13612+P26010).
T2 construct: lymphoma cell strain RPMI-8866 of human B cells, known to express integrin α4β7; endogenous in cells; host or cells: RPMI-8866 (human B lymphoma cell line)
T2 sequence (P13612 34-1032): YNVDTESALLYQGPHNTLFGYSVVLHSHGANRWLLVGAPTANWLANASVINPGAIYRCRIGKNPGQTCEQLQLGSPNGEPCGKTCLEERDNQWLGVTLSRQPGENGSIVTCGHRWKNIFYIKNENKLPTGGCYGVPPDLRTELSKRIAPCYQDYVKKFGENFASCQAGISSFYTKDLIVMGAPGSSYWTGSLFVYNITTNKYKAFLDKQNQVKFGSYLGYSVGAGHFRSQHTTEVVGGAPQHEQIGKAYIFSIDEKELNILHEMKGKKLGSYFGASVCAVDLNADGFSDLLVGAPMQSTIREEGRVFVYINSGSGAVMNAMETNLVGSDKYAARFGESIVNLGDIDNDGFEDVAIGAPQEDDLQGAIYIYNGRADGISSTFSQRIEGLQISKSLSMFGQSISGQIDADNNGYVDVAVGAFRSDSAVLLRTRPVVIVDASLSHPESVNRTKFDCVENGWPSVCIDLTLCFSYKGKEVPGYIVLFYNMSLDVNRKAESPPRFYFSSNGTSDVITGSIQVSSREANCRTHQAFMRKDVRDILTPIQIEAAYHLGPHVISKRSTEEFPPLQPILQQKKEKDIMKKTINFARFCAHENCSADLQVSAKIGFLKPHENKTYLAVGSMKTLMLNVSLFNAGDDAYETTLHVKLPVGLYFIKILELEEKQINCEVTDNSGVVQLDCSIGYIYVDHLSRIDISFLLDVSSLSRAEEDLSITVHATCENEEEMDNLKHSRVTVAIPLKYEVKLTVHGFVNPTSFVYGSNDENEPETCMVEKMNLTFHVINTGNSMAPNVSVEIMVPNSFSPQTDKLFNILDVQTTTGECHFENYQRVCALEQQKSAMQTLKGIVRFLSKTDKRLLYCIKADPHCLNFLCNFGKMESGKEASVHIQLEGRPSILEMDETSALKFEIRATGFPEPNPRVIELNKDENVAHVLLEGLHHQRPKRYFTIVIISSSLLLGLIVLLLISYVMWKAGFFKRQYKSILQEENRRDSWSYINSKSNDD
T2 sequence (P26010 20-798): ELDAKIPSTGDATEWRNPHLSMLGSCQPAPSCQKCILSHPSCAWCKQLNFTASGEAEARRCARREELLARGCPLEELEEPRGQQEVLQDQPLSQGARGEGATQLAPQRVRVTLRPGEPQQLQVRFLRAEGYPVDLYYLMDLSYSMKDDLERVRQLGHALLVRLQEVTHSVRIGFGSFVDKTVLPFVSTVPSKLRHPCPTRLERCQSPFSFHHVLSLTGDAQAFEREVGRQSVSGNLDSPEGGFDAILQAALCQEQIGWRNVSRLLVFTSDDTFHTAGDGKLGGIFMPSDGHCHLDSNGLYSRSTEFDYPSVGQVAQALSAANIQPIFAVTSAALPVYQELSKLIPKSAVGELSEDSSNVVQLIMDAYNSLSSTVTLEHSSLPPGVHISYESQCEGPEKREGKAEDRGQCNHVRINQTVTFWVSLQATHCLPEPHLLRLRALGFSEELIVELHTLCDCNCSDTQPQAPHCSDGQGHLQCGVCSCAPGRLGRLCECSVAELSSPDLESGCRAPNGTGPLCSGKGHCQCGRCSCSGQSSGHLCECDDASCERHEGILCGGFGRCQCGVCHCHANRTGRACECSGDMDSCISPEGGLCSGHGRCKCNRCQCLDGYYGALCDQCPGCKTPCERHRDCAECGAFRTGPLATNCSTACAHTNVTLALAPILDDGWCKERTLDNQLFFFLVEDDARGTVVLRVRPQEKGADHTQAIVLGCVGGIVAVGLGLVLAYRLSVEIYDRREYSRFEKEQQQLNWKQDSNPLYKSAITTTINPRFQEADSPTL
The experiment in a line: VCAM antagonistic activity (VCAM-1/α4β7 binding assay). In kind it is cell-based. The conditions noted are these: RPMI-8866 cells binding to VCAM-1; read-out: VCAM antagonistic activity (IC50) α4β7. The method, then:
(Test Example) VCAM Antagonistic Activity (VCAM-1/α4β7 Binding Assay):
The capacity of a test substance antagonistic to the binding of lymphoma cell strain RPMI-8866 of human B cells, known to express integrin α4β7, to VCAM-1 was determined.
as §1
RPMI-8866 cells were incubated in Dulbecco modified Eagle medium containing 10 μg/ml of Calcein-AM (Wako Pure Chemical Industries, Ltd.) (SIGMA, hereinafter referred to as “DMEM”) at 37° C. for 30 minutes to label with fluorescence. The cells were again suspended in a binding buffer (20 mM HEPES, DMEM containing 0.1% BSA) containing 4 mM of MnCl2.
as §2, with “RPMI-8866” for “Jurkat”
as §3

A value given as a limit tells only on which side of the number the result lay.

T1 sequence (P05556 21-798, one chain of several): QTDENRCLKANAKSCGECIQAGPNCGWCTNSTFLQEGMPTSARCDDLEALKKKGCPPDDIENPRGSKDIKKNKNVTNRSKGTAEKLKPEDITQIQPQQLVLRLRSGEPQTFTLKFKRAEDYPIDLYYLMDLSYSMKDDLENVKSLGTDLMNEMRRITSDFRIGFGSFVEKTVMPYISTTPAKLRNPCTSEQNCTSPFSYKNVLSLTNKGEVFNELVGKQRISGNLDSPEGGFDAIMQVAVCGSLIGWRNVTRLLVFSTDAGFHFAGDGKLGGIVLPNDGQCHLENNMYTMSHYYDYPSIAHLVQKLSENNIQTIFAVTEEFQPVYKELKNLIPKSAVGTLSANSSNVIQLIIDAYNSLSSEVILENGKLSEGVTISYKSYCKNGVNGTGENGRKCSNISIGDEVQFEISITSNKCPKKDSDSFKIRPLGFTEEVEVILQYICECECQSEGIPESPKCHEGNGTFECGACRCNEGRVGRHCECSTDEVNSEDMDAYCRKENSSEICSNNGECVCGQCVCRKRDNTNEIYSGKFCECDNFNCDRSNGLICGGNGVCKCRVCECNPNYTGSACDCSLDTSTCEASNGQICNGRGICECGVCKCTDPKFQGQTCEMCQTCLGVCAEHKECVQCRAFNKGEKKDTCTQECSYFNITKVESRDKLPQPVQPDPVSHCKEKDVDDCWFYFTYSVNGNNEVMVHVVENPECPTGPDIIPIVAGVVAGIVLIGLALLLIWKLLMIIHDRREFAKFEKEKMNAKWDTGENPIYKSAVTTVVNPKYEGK

Consider `CCC(CC)(C(=O)N[C@@H](Cc1ccc(OCc2c(Cl)cccc2Cl)cc1)C(=O)O)C(=O)N1CC[C@H](O)C1` [Example 65], for which the IC50 on integrin α4β1 is 100 to 2000 nM; on integrin α4β7, less than 20 nM.

For the compound `CCC(CC)(C(=O)NCCc1ccc(O)cc1)C(=O)N[C@@H](Cc1ccc(OCc2c(Cl)cccc2Cl)cc1)C(=O)O` [Example 6], the values for the IC50 on integrin α4β1 and on integrin α4β7 were 2000 to 10000 nM and 100 to 2000 nM, respectively.

In the case of `CCC(CC)(C(=O)NC(Cc1ccc(OCc2c(Cl)cccc2Cl)cc1)C(=O)O)C(=O)N1CCCC(O)C1` (mixture of isomers) [Example 48], the IC50 at integrin α4β1 was 100 to 2000 nM; at integrin α4β7, 20 to 100 nM.

For the compound `CCC(CC)(C(=O)NC(Cc1ccc(OCc2c(Cl)cccc2Cl)cc1)C(=O)O)C(=O)N1CC2CC1CN2C(C)=O` (centres unmarked) [Example 466], the half-maximal inhibitory concentration (IC50) on integrin α4β1 was 20 to 100 nM; at integrin α4β7, less than 20 nM.

As to `CN(C)C(=O)C1(C(=O)N[C@@H](Cc2ccc(NC(=O)c3cc(Br)ccc3Cl)cc2)C(=O)O)CC1` [Example 87], the results for the IC50 at integrin α4β1 and at integrin α4β7 were 100 to 2000 nM and 20 to 100 nM, respectively.

As to `COc1ccc(Br)c(C(=O)Nc2ccc(C[C@H](NC(=O)C3(C(=O)N(C)C)CC3)C(=O)O)cc2)c1` [Example 89], the IC50 at integrin α4β1 and on integrin α4β7 was 100 to 2000 nM each time.

On to `CCC(CC)(C(=O)N[C@@H](Cc1ccc(OCc2c(Cl)cccc2Cl)cc1)C(=O)O)C(=O)N1CCC[C@H]1CN1CCCC1` [Example 53], for which the IC50 is 100 to 2000 nM on integrin α4β1 and less than 20 nM at integrin α4β7.

Regarding `CN(C)C(=O)C1(C(=O)N[C@@H](Cc2ccc(OCc3c(Cl)cccc3Cl)cc2)C(=O)O)CCOCC1` [Example 468], the IC50 was 100 to 2000 nM on integrin α4β1 and less than 20 nM at integrin α4β7.

With `CCC(CCOC)(C(=O)NC(Cc1ccc(OCc2c(Cl)cccc2Cl)cc1)C(=O)O)C(=O)N1CCCC1` (mixture of isomers) [Example 43], the IC50 on integrin α4β1 is 100 to 2000 nM; at integrin α4β7, less than 20 nM.

Take `CCC(CC)(C(=O)N[C@@H](Cc1ccc(OCc2c(Cl)cccc2Cl)cc1)C(=O)O)C(=O)N1C[C@H](O)C[C@H]1C(=O)OC` [Example 46]: the IC50 on integrin α4β1 was 100 to 2000 nM; on integrin α4β7, less than 20 nM.

Turning to `CCN(C)C(=O)C(CC)(CC)C(=O)N[C@@H](Cc1ccc(OCc2c(Cl)cccc2Cl)cc1)C(=O)O` [Example 41], the IC50 was in the range of 100 to 2000 nM at integrin α4β1 and 20 to 100 nM on integrin α4β7.

As to `CCC(CC)(C(=O)N[C@@H](Cc1ccc(NC(=O)c2nc(S(C)(=O)=O)ncc2Cl)cc1)C(=O)O)C(=O)N1CCCC1` [Example 479, N-[2-(pyrrolidine-1-ylcarbonyl)-2-ethyl-butanoyl)-4-({[5-chloro-2-(methylsulfonyl)pyrimidine-4-yl]carbonyl}-amino)-L-phenyl-alanine], the half-inhibitory concentration (IC50) at integrin α4β1 is 20 to 100 nM; at integrin α4β7, less than 20 nM.

Take `CCC(CC)(C(=O)N[C@@H](Cc1ccc(NC(=O)c2c(Cl)cccc2Cl)cc1)C(=O)O)C(=O)N1CCCC1` [Example 91, N-[2-(pyrrolidine-1-ylcarbonyl)-2-ethyl-butanoyl]-4-{[(2,6-dichlorophenyl)carbonyl]amino}-L-phenylalanine]: the IC50 at integrin α4β1 and on integrin α4β7 was less than 20 nM in each case.

With `CCC(CC)(C(=O)N[C@@H](Cc1ccc(OCc2c(Cl)cccc2Cl)cc1)C(=O)O)C(=O)N1CCC[C@@H](O)C1` [Example 77], the half-inhibitory concentration (IC50) is 100 to 2000 nM at integrin α4β1 and less than 20 nM at integrin α4β7.

Take `O=C(O)[C@H](Cc1ccc(OCc2c(Cl)cccc2Cl)cc1)NC(=O)C1(C(=O)N2CC[C@@H](O)C2)CCOCC1` [Example 467]: the IC50 was 100 to 2000 nM at integrin α4β1 and less than 20 nM on integrin α4β7.

Turning to `CCC(CC)(C(=O)N[C@@H](Cc1ccc(NC(=O)c2ccccc2[N+](=O)[O-])cc1)C(=O)O)C(=O)N1CCCC1` [Example 97], the concentration for half-maximal inhibition (IC50) is 20 to 100 nM on integrin α4β1 and less than 20 nM at integrin α4β7.

As a reminder, the IC50 is the concentration at which inhibition is half-maximal.
